Reference: ChEMBL document CHEMBL1135564, “Diaryl-dialkyl-substituted pyrazoles: regioselective synthesis and binding affinity for the estrogen receptor” (Bioorg Med Chem Lett, 2002)

Columns and labels:
[1] = molecular target: Estrogen receptor beta (Homo sapiens) (UniProt Q92731); assay: Relative binding affinity (RBA) for human Estrogen receptor beta compared to estradiol
[2] = molecular target: T1, Estrogen receptor (Homo sapiens) (UniProt P03372); assay: Relative binding affinity (RBA) for human Estrogen receptor alpha compared to estradiol
T1 sequence (whole entry): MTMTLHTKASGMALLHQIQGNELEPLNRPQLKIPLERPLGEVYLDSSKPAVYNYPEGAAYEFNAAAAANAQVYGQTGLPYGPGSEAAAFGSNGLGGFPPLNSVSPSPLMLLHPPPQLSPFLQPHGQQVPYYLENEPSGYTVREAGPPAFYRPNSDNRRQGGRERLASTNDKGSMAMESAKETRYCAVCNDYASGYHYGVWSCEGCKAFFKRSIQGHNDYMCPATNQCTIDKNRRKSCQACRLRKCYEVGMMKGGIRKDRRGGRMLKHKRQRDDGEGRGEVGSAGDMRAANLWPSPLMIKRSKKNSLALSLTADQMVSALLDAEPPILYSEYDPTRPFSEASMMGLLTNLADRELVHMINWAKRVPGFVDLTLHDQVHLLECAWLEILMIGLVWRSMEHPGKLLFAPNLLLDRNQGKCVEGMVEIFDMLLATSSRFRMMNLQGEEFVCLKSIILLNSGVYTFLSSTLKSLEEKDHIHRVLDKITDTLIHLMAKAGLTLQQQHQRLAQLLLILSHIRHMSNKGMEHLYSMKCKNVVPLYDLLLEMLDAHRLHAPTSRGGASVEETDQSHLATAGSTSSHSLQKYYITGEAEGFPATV

[3] = molecular target: Estrogen receptor (Homo sapiens) (UniProt Q92731+P03372); assay: Selectivity ratio as relative binding affinity for estrogen receptor alpha and beta; format: protein assay

Sequence of Estrogen receptor beta (Homo sapiens) (Q92731 whole entry): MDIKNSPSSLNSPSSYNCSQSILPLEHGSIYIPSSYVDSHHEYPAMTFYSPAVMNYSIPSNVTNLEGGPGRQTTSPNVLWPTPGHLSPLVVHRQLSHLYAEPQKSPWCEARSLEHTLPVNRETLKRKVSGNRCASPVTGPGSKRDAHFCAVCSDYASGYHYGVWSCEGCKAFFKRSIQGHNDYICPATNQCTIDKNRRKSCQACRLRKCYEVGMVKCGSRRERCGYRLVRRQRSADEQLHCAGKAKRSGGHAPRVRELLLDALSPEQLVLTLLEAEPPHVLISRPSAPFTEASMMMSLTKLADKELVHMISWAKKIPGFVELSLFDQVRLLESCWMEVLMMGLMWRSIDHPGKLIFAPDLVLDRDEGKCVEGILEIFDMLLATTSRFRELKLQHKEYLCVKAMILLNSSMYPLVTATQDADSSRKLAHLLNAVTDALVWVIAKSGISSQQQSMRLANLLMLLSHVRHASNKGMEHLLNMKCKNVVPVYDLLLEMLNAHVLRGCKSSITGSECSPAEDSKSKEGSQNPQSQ

SMILES	Affinity [1]	Affinity [2]	Ratio [3]
Oc1ccc(-c2nn(-c3ccc(O)cc3)c3c2CCCCC3)cc1	0.047	0.19	4
Oc1ccc(-c2nn(-c3ccc(O)cc3)c3c2CCCC3)cc1	0.042	0.56	13
CCCc1c(-c2ccc(O)cc2)nn(C2CCCC2)c1-c1ccc(O)cc1	71	74	1
CCCc1c(-c2ccc(O)cc2)nn(C2CCCCC2)c1-c1ccc(O)cc1	13	30	2.3

Now from value to compound:

Affinity [1]	Affinity [2]	Ratio [3]	SMILES
0.6	3.6	6	CCCc1c(-c2ccc(O)cc2)nn(-c2ccc(O)cc2)c1C1CCCC1
0.23	2.1	8.9	CCc1c(-c2ccc(O)cc2)nn(-c2ccc(O)cc2)c1C1CCCC1
0.11	1.1	9.4	CCCc1c(-c2ccc(O)cc2)nn(-c2ccc(O)cc2)c1C1CCCCC1
0.14	0.59	4.2	CCc1c(-c2ccc(O)cc2)nn(-c2ccc(O)cc2)c1C1CCCCC1
0.12	49	410	CCCc1c(-c2ccc(O)cc2)nn(-c2ccc(O)cc2)c1-c1ccc(O)cc1
